Assay results: patent US12195427B2, “MASP-2 inhibitors and methods of use” (priority 2018, dated 2025)
pIC50: −log10 of the molar value.

Key:
[1] = tested on: Lectin Pathway; assay: Lectin Pathway Activation Assay in Human Serum (mannan-coated ELISA, C3c detection); assay type: biochemical; conditions: 1% human serum
Protocol: Microtiter ELISA plate was coated with mannan from Saccharomyces cerevisiae (Sigma-Aldrich, M7504) for overnight at 4° C. in coating buffer [15 mM Na2CO3, 35 mM NaHCO3].

[2] = biological target: MASP-2 CCP2-SP (Homo sapiens (Human), UniProt O00187); assay: MASP-2 co-crystallization, X-ray crystallography and structure analysis (H-bonds, van der Waals contacts); set-up: van der Waals contact distance, MASP-2 HIS 483 atom CD2 / van der Waals contact distance, MASP-2 HIS 483 atom NE2 / van der Waals contact distance, SER 654 C to compound atom / van der Waals contact distance, SER 654 O to compound atom / van der Waals contact distance, TRP 655 C to compound atom / van der Waals contact distance, MASP-2 GLY 528 atom CA / van der Waals contact distance TRP 655 atom CZ3 / van der Waals contact distance TRP 655 atom N / van der Waals contact distance TRP 655 atom CE3 / van der Waals contact distance GLY 656 atom C / van der Waals contact distance GLY 656 atom CA / van der Waals contact distance GLY 656 atom O / van der Waals contact distance, MASP-2 TYR 607 atom CD1 / van der Waals contact distance, MASP-2 PRO 606 atom O / d(C3,CA1) / d(CA1,N1)2 / d(H4,O1) / d(H4,O2) / d(O1,O2) / d(CA1,O2) / d(CA6,O1) / d(CA6,O2) / d(CA1,C5) / d(O2,H3) / d(N2,C2) / d(CA5,N2) / d(N2,C4) / d(N2,C6) / d(N2,CA3) / d(N2,O3) / d(O4,H2): unit not given beside the values; conditions: for H-bond distance to MASP-2 GLY 656 atom N: GLY 656 N; for H-bond distance to MASP-2 GLY 656 atom O: GLY 656 O; for H-bond distance to MASP-2 SER 654 atom O: SER 654 O; for H-bond distance to MASP-2 SER 657 atom O: SER 657 O;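 on Ligand-pharmacophore element distance, pharmacophore element C2: distance from averaged pharmacophore element to bound ligand; missing value means element absent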;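 on Ligand-pharmacophore element distance, pharmacophore element C3: distance from averaged pharmacophore element to bound ligand; missing value means element absent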;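 on Ligand-pharmacophore element distance, pharmacophore element C4: distance from averaged pharmacophore element to bound ligand; missing value means element absent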;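 on Ligand-pharmacophore element distance, pharmacophore element C5: distance from averaged pharmacophore element to bound ligand; missing value means element absent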
Summary of the method: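 Inhibitor complexes were obtained by soaking crystals of E. coli-derived human MASP-2 CCP2-SP. Synchrotron diffraction at 1.0 wavelength, molecular replacement and partial refinement gave the models; one pose per ligand was chosen for contact analysis.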

[3] = Table A5-1 pharmacophore: distance between elements, S2/S1 region
[4] = Table A5-2 pharmacophore distance, S3/S4 region
[5] = Table A7-1, between pharmacophore elements of the bound compound

Sequence of MASP-2 CCP2-SP (O00187 445-686): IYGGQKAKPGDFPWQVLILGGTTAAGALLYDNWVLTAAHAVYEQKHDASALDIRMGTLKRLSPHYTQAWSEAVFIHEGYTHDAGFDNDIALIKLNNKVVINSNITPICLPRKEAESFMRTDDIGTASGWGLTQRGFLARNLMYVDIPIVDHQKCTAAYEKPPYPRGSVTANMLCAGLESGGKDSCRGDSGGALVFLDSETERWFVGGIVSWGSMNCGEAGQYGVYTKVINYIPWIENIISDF
Sequence of MASP-2 CCP2-SP (O00187 364-432 partner): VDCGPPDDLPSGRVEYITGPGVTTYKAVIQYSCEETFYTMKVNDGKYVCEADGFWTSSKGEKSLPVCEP

## C[C@H](NC(=O)c1cc(-c2ccccc2)c[nH]1)C(=O)NCc1ccc(C(=N)N)cc1 [compound 1030]
[1]
  pIC50: 5.30 to 6.30
[2]; Table A1 (H-Bonds)
  H-bond distance to MASP-2 GLY 656 atom N: 3.12
  H-bond distance to MASP-2 GLY 656 atom O: 2.82
  H-bond distance to MASP-2 SER 654 atom O: 2.82
  H-bond distance to MASP-2 SER 657 atom O: 2.91
[2]; Table A1 (H-Bonds), SER 628 OG
  H-bond distance to MASP-2 SER 628 atom OG: 3.17
[2]; Table A2-1
  van der Waals contact distance, MASP-2 HIS 483 atom CD2: 3.61
[2]; Table A2-9 second part, ARG 630, AA atoms N, NE, NH1
  van der Waals contact distance, MASP-2 amino acid atom to compound atom: 3.83
[2]; Table A2-13, MASP-2 GLY 656 C
  van der Waals contact distance GLY 656 atom C: 3.73
[2]; Table A2-13, MASP-2 GLY 656 CA
  van der Waals contact distance GLY 656 atom CA: 3.86
[2]; Table A2-13, MASP-2 TRP 655 N
  van der Waals contact distance TRP 655 atom N: 3.81
[2]; Table A2-14, MASP-2 GLY 656 N
  van der Waals contact distance GLY 656 atom N: 3.78
[2]; Table A2-14, MASP-2 SER 657 C, columns c12-c13 (inferred)
  van der Waals contact distance SER 657 atom C: 3.82

## Cc1nc(N)ccc1CNC(=O)[C@H](C)NC(=O)[C@H]1C[C@H](Cc2ccccc2)CN1 [compound 1304, (2R,4S)—N—((S)-1-(((6-Amino-2-methylpyridin-3-yl)methyl)amino)-1-oxopropan-2-yl)-4-benzylpyrrolidine-2-carboxamide]
[1]
  pIC50: 6.30 to 7.30
[2]; Table A1 (H-Bonds), ASP 627 OD2
  H-bond distance to MASP-2 ASP 627 atom OD2: 3.17
[2]; Table A1 (H-Bonds)
  H-bond distance to MASP-2 GLY 656 atom N: 3.2
  H-bond distance to MASP-2 GLY 656 atom O: 2.81
  H-bond distance to MASP-2 SER 654 atom O: 2.97
  H-bond distance to MASP-2 SER 657 atom O: 2.96
[2]; Table A1 (H-Bonds), SER 628 O
  H-bond distance to MASP-2 SER 628 atom O: 3.18
[2]; Table A2-1
  van der Waals contact distance, MASP-2 HIS 483 atom CD2: 3.71
  van der Waals contact distance, MASP-2 HIS 483 atom NE2: 3.65
[2]; Table A2-2
  van der Waals contact distance, MASP-2 GLY 528 atom CA: 3.79
[2]; Table A2-3
  van der Waals contact distance, MASP-2 PHE 529 atom CD2: 3.79
  van der Waals contact distance, MASP-2 PHE 529 atom CE2: 3.84
[2]; Table A2-4
  van der Waals contact distance, MASP-2 TYR 607 atom CD1: 3.78
[2]; Table A2-7: SER 628 (CB, O, OG)
  van der Waals contact distance, MASP-2 amino acid atom to compound atom: 3.65
[2]; Table A2-11
  van der Waals contact distance, VAL 653 CG1 to compound atom: 3.27
[2]; Table A2-12
  van der Waals contact distance, TRP 655 CA to compound atom: 3.42
[2]; Table A2-13, MASP-2 TRP 655 CE3, compound atom in line below
  van der Waals contact distance TRP 655 atom CE3: 3.78
[2]; Table A2-13, MASP-2 TRP 655 CZ3
  van der Waals contact distance TRP 655 atom CZ3: 3.68
[2]; Table A2 section before Table A2-8
  van der Waals contact distance, MASP-2 amino acid atom to compound atom: 3.81
[2]; Table A4-1, element C2
  Ligand-pharmacophore element distance, pharmacophore element C2: 0
[2]; Table A4-1, element C3
  Ligand-pharmacophore element distance, pharmacophore element C3: 0.09
[2]; Table A4-1, element C4
  Ligand-pharmacophore element distance, pharmacophore element C4: 0
[2]; Table A4-1, element C5
  Ligand-pharmacophore element distance, pharmacophore element C5: 0
[2]; Table A4-1, element C6
  Ligand-pharmacophore element distance, pharmacophore element C6: 0
[2]; Table A4-1, element C7
  Ligand-pharmacophore element distance, pharmacophore element C7: 0
[2]; Table A4-1, element CA1
  Ligand-pharmacophore element distance, pharmacophore element CA1: 0.56
[2]; Table A4-1, element CA2
  Ligand-pharmacophore element distance, pharmacophore element CA2: 0.23
[2]; Table A4-1, element CA3
  Ligand-pharmacophore element distance, pharmacophore element CA3: 0
[2]; Table A4-1, element CA4
  Ligand-pharmacophore element distance, pharmacophore element CA4: 0
[2]; Table A4-1, element CA5
  Ligand-pharmacophore element distance, pharmacophore element CA5: 0
[2]; Table A4-1, element CA6
  Ligand-pharmacophore element distance, pharmacophore element CA6: 0
[2]; [3]
  d(C3,CA1): 2.84
  d(CA1,N1)2: 1.38
  d(CA1,O1): 4.39
  d(CA1,O2): 3.89
  d(H4,O1): 4.40
  d(H4,O2): 3.85
  d(O1,O2): 3.37
[2]; [4]
  d(N2,CA2): 5.96
  d(O2,H3): 4.37
  d(O2,N2): 2.62
[2]; Table A6-1 pharmacophore angle
  a(C3, CA1, O1): 149.82
  a(CA1, O1, O2): 105.87
  a(O1, O2, H4): 132.43
[2]; Table A6-1 pharmacophore angle, Methyl-amino-pyridine compounds
  a(N1, CA1, O1) b): 173.92
[2]; Table A6-2 pharmacophore angle
  a(O1, O2, H3): 147.16
  a(O1, O2, N2): 139.74
  a(O2, N2, CA2): 156.83
[2]; [5]
  Pharmacophore torsion angle a(C3, CA1, O1, H4): 24.93
  Pharmacophore torsion angle a(H4, O1, O2, H3): 49.79
  Pharmacophore torsion angle a(H4, O1, O2, N2): 138.09
  Pharmacophore torsion angle a(N1, CA1, O1, H4): 5.90
  Pharmacophore torsion angle a(O1, H4, O2, CA1): −84.58
[2]; Table A7-2, between pharmacophore elements of the bound compound
  Pharmacophore torsion angle a(O1, O2, N2, CA2): 125.90
